Laboratory results from patent US8241647B2, “Amphiphilic molecule, molecular assembly comprising the amphiphilic molecule, and use of the molecular assembly” (Waseda University, priority 2007, dated 2012).

Assays:
[1] = Measurement of zeta potential of liposomes; format: physicochemical; settings: liposome compound/cholesterol/PEG-Glu2C18 (5/5/0.03 molar ratio); acetate buffers 20 mM; 37°C
Description: Portions of the prepared liposome ([lipid]=10 mg/ml) were respectively added to acetate buffers with different pHs (7.4, 7, 6, 5, 4) (30 mM) to the final concentration of [lipid]=1 mg/mL, and then the zeta potential at 37° C. was measured. Zetasizer 4 manufactured by Malvern was used. A capillary cell was filled with a liposome-dispersed liquid obtained by dilution to the measurement concentration, and the measurement was performed at 37° C. 3 times.
Portions of the prepared liposome ([lipid]=10 mg/ml) were respectively added to acetate buffers with different pHs (7.4, 7, 6, 5, 4) (20 mM) to the final concentration of [lipid]=1 mg/mL, and then the zeta potential at 37° C. was measured.
Portions of each of the prepared liposomes ([lipid]=10 mg/ml) were respectively added to acetate buffers with different pHs (7.4, 7, 6, 5, 4) (20 mM) to the final concentration of [lipid]=1 mg/mL, and then the zeta potential at 37° C. was measured.

[2] = Preparation of liposome from mixed lipid (dispersion in water, high-pressure extrusion); format: physicochemical; settings: mixed lipid compound/cholesterol/PEG-Glu2C18 dispersed in water, high-pressure extrusion 0.22 μm
Description: Compound 7, 8 or 9 (0.177 mmol), cholesterol (0.179 mmol) and PEG-Glu2C18 (1.0 μmol) were dissolved in benzene, and the mixture was freeze-dried to prepare a mixed lipid. 20 mg of this mixed lipid was dispersed in 1 mL of water for injection, and the resultant mixture was stirred for 6 hours. After that, liposome having a particle size of about 240 nm was prepared by means of the high-pressure extrusion method (final pore diameter: 0.22 μm).
Compound 3, 12 or 13 (0.177 mmol), cholesterol (0.179 mmol) and PEG-Glu2C18 (1.0 mmol) were dissolved in benzene, and the mixture was freeze-dried to prepare a mixed lipid. 20 mg of this mixed lipid was dispersed in 1 mL of water for injection, and the resultant mixture was stirred for 6 hours. After that, liposome having a particle size of about 240 nm was prepared by means of the high-pressure extrusion method (final pore diameter: 0.22 μm).

[3] = Degree of fusion with anionic liposome (Example 9); settings: liposome compound/cholesterol/PEG-Glu2C18, 37°C, 30 minutes
Description: In a manner similar to that in Example 2, the degree of fusion of the pH-responsive liposome with respect to the anionic liposome (DOPC/DPPG, 5/1 (molar ratio)) was calculated. The measurement method was as follows. 50 μL of 1 mM anionic liposome and 50 μL of 9 mM (converted to the mixed lipid basis) pH-responsive liposome were added to 1.9 mL of each of acetate buffers with different pHs and allowed to stand at 37° C. 30 minutes later, […] of the mixture was dividedly poured and added to 1.9 mL of HEPES buffer (pH 7.4). The resultant mixture was transferred to a quartz cell and subjected to fluorescence measurement (λex: 460 nm, 530 nm). The measurement was carried out using RF-5300PC manufactured by Shimadzu.

SMILES	pH at which the zeta potential changed from negative to positive [1]	liposome formation with the compound as main component [2]	degree of fusion ([3]; pH 6.5 (maximum))	degree of fusion ([3]; pH 7.4)
CCCCCCCCCCCCCCCCOC(=O)CCC(NC(=O)C(CCCCNC(=O)C(N)CC(=O)O)NC(=O)C(N)CCC(=O)O)C(=O)OCCCCCCCCCCCCCCCC (stereo not shown) [Compound 7]	about 5.5	liposome was formed	–	–
CCCCCCCCCCCCCCCCOC(=O)CCC(NC(=O)C(CCCCNC(=O)C(N)CCC(=O)O)NC(=O)C(N)CC(=O)O)C(=O)OCCCCCCCCCCCCCCCC (stereo not shown) [Compound 8]	about 4.8	liposome was formed	–	–
CCCCCCCCCCCCCCCCOC(=O)CCC(NC(=O)C(CCCCNC(=O)C(N)CC(=O)O)NC(=O)C(N)CC(=O)O)C(=O)OCCCCCCCCCCCCCCCC (stereo not shown) [Compound 9]	–	aggregated	–	–
CCCCCCCCCCCCCCOC(=O)CCC(NC(=O)C(CCCCNC(=O)C(N)CCC(=O)O)NC(=O)C(N)CCC(=O)O)C(=O)OCCCCCCCCCCCCCC (stereo not shown) [Compound 12]	about 7.0	liposome was formed	over 65%	about 45%
CCCCCCCCCCCCCCCCCCOC(=O)CCC(NC(=O)C(CCCCNC(=O)C(N)CCC(=O)O)NC(=O)C(N)CCC(=O)O)C(=O)OCCCCCCCCCCCCCCCCCC (stereo not shown) [Compound 13]	–	poor dispersibility	–	–
